{"source": "patent US11331364B2", "about": "“Use for JNK inhibitor molecules for treatment of various diseases” (Xigen Inflammation Ltd., priority 2014, dated 2022)", "test_system": "Hela cells", "assay": "Internalization of transporter constructs, 24 hours, fluorescence of cell extracts", "assay_type": "cell-based", "details": "FIG. 6; Y in position 2", "procedure": "The transporter sequences analyzed correspond to SEQ ID NOs: 52-94 plus SEQ ID NOs: 45, 47, 46, 43 and 99 (FIG. 6A) and SEQ ID NOs: 100-147 (FIG. 6B). […] Hela cells were incubated 24 hours in 96 well plate with […] of the respective transporters. The cells were then washed twice with an acidic buffer (0.2M Glycin, 0.15M NaCl, pH 3.0) and twice with PBS. Cells were broken by the addition of RIPA lysis buffer. The relative amount of internalized peptide was then determined by reading the fluorescence intensity (Fusion Alpha plate reader; PerkinElmer) of each extract followed by background subtraction.\nHela cells were incubated 24 hours in 96 well plate with […] of the r3-L-TAT-derived transporters. The cells were then washed twice with an acidic buffer (0.2M Glycin, 0.15M NaCl, pH 3.0) and twice with PBS. Cells were broken by the addition of RIPA lysis buffer. The relative amount of internalized peptide was then determined by reading the fluorescence intensity (Fusion Alpha plate reader; PerkinElmer) of each extract followed by background subtraction", "note": "Square brackets hold non-standard residues; d marks the D form. Ends that are not written are not given here."}
{"substance": "rYKRrQRRr ([dR]YKR[dR]QRR[dR]) [SEQ ID NO: 142]", "values": [{"measurement": "transporter activity", "result": "highest transporter activity"}]}
